In one series the test system is Alternaria alternata. The series can be described thus: in vitro inhibition assay for volatile antimicrobial compounds (headspace, PDA agar). The class given is cell-based. The settings on record: volatile headspace exposure. How it is done: [The procedure below names another organism; the source lists this organism under the same test.] (§1) 12-well (6.5 ml volume per well) microtiter plates are used for the in vitro inhibition assay for volatile antimicrobial compounds. A 3-ml volume of full-strength Potato Dextrose Agar (PDA) is added to each well. After cooling, 1 μL of 1×10^5 spores per ml Botrytis cinerea (ATCC #204446) spore suspension is spot pipetted to the agar in the center of the well. Whatman #1 filter disks (1.5 cm; Cat. No. 1001-0155) are placed on the underside of a polyethylene PCR plate sealing film. For determination of the minimum inhibitory concentration (MIC), test compounds are diluted in acetone, in duplicate, and 50 μli of the compound solution is added to disks at concentrations that can vary from 0.001 mg/l to 1142.9 mg/l. The acetone is permitted to evaporate for 5 minutes. The headspace around the Botrytis cinerea inoculum is then sealed inside the well by the film with the adhering disk containing the antimicrobial, anti-decay, anti-spoilage, or pathogen control agent. Plates are inverted to prevent any possibility of the chemical from flaking from the disk and falling onto the inoculated agar.

The subject of the next series is Monilinia fructicola. The description is as above. The class given is cell-based. The settings on record: volatile headspace exposure. Here is the method:
[The procedure below names another organism; the source lists this organism under the same test.] as §1

A further series relates to Penicillium expansum. The series is described as above. The class given is cell-based. The settings on record: volatile headspace exposure. How it is done: [The procedure below names another organism; the source lists this organism under the same test.] as §1
The test system of series [1] is Botrytis cinerea (ATCC #204446). Described as above. The class given is cell-based. The conditions noted are these: for MIC / EC50: Botrytis cinerea, ATCC204446, 72 h, volatile headspace exposure, 3 days at 23° C.; for EC50: growth relative to control. How it is done:
as §1

Series [2] has the same test system. The series can be described thus: Strawberry in vivo analysis, volatile bioassay on wound-inoculated strawberry. The conditions noted are these: for phytotoxicity in strawberry in vivo analysis: symptoms of phytotoxicity evaluated daily; for antimicrobial activity against Botrytis cinerea in strawberry in vivo analysis: wound-inoculated, 3 days treatment at 21° C. plus 3 days evaluation. Set-up: species or system Botrytis cinerea on strawberry. How it is done: In order to assess the in vivo activity of volatile antimicrobial compounds, a volatile bioassay is developed using strawberry. Fruit (6 to 8) are placed inside a 1 lb clamshell (Packaging Direct Inc.; Product #4341699) with the calyx facing downward. The strawberry fruit are wound-inoculated by pipetting 20 μL of 1×10^6 spore per ml Botrytis cinerea (ATCC #204446) into a wound approximately 5 mm deep and 2.6 mm in width. The clamshell is placed inside a 2.55 L plastic container (Snapware; Model #1098421). A Whatman #1 filter paper (4.25 cm; Cat. No. 1001-042) is placed on a watchglass, which is then placed on top of the closed clamshell lid. For determination of the MIC, test compounds are diluted in acetone, and 400 μl of the solution is added to disks, in duplicate, in a dose dependent manner (for example 0.4 to 50 mg/liter). The acetone is permitted to evaporate for 5 minutes. The plastic containers are then closed and placed for 3 days at 21° C. Clamshells are then removed from the treatment plastic container and placed into separate larger secondary containers for a further 3 days of evaluation at 21° C. During these 3 days, fruit are evaluated daily for incidence and severity of disease and symptoms of phytotoxicity.

In series [3] the test system is Escherichia coli (ATCC #25922). In words: in vitro inhibition assay for volatile antimicrobial compounds against bacteria (LB agar). The class given is cell-based. The settings on record: volatile headspace exposure, 2 days at 23° C. How it is done: 12-well (6.5 ml volume per well) microtiter plates are used for the in vitro inhibition assay for volatile antimicrobial compounds. A 3-ml volume of full-strength L^B Agar is added to each well. After cooling, 15 μL of Escherichia coli (ATCC #25922) adjusted to an optical density of 0.02 to 0.035, and further diluted 1/10 is pipetted to the center of the agar. The plate is tilted to distribute bacteria uniformly. Whatman #1 filter disks (1.5 cm; Cat. No. 1001-0155) are placed on the underside of a polyethylene PCR plate sealing film. […] The acetone is permitted to evaporate for 5 minutes. The headspace around the Escherichia coli inoculum is then sealed inside the well by the film with the adhering disk containing the antimicrobial, anti-decay, anti-spoilage, or pathogen control agent. Plates are inverted, placed over the treated disks and sealed to prevent any of the chemical from flaking from the disk and falling onto the inoculated agar. After 2 days of incubation at 23° C., cultures were evaluated for colony growth relative to control.

Another series deals with Glomerella cingulata. The series can be described thus: in vitro inhibition assay for volatile antimicrobial compounds (headspace, PDA agar). The class given is cell-based. The conditions noted are these: Colletotrichum gloeosporioides; volatile headspace exposure.
Series [4] has as its system Botrytis cinerea (ATCC #204446). The series can be described thus: Grape in vivo analysis, volatile bioassay on inoculated green table grape. More on the design: species or system Botrytis cinerea on green table grape. The settings on record: for antimicrobial activity against Botrytis cinerea in grape in vivo analysis: stem wound inoculated, 3 days treatment at 21° C. plus 3 days evaluation; for phytotoxicity in grape in vivo analysis: symptoms of phytotoxicity evaluated daily. Here is the method:
In order to assess the in vivo activity of volatile antimicrobial compounds, a volatile bioassay is developed using green table grape. Fruit are removed from the rachis, and 16 to 20 fruit are placed inside a 1 dry pint clamshell (Produce Packaging; Product #03231004KZ) with the stem wound facing upwards. The grapes are inoculated by pipetting 20 μL of 1×10^6 spore per ml Botrytis cinerea (ATCC #204446) into the stem wound. The clamshell is placed inside a 2.55 L plastic container (Snapware; Model #1098421). A Whatman #1 filter paper (4.25 cm; Cat. No. 1001-042) is placed on a watchglass, which is then placed on top of the closed clamshell lid. For determination of the MIC, test compounds are diluted in acetone, and 400 μl of the solution is added to disks, in duplicate, in a dose dependent manner (for example 0.4 to 50 mg/liter). The acetone is permitted to evaporate for 5 minutes. The plastic containers are then closed and placed for 3 days at 21° C. Clamshells are then removed from the treatment plastic container and placed into separate larger secondary containers for a further 3 days of evaluation at 21° C. During these 3 days, fruit are evaluated daily for incidence and severity of disease and symptoms of phytotoxicity.

In brackets after ≈: the same amount, converted by molar mass.

In the case of `c1ccc2c(c1)COB2OCCOB1OCc2ccccc21` [Compound 1, 1,2-bis(benzo[c][1,2]oxaborol-1(3H)-yloxy)ethane], the 50% effective concentration (EC50) in the series on Alternaria alternata is less than 0.6 µg/mL; with Monilinia fructicola it was 6.8 µg/mL (≈ 23.1 µM); with Penicillium expansum, 2.5 µg/mL (≈ 8.51 µM); in series [1], 0.9 µg/mL (≈ 3.06 µM); with Glomerella cingulata, 11.1 µg/mL (≈ 37.8 µM). For the same compound, the minimal inhibitory concentration (MIC) was determined as 8.9 µg/mL (≈ 30.3 µM) against Alternaria alternata; 35.7 µg/mL (≈ 121 µM) in the series with Monilinia fructicola; 8.9 µg/mL (≈ 30.3 µM) against Penicillium expansum; 2.2 µg/mL (≈ 7.48 µM) in series [1]; 143 µg/mL (≈ 486 µM) in the series on Glomerella cingulata. Also, the “phytotoxicity in strawberry in vivo analysis” value in series [2] is “no phytotoxicity”. Also, in series [2], the “antimicrobial activity against Botrytis cinerea in strawberry in vivo analysis” value was “good antimicrobial activity”. Further, in series [3], the “antimicrobial activity against Escherichia coli (colony growth relative to control)” value is recorded as “good antimicrobial activity”. For the same compound, the “antimicrobial activity against Botrytis cinerea in grape in vivo analysis” value in series [4] is on record as “good antimicrobial activity”. In addition, the “phytotoxicity in grape in vivo analysis” value in series [4] is “no phytotoxicity”.

For the compound `CC(C)(COB1OCc2ccccc21)COB1OCc2ccccc21` [Compound 2, 1,1′-((2,2-dimethylpropane-1,3-diyl)bis(oxy))bis(1,3-dihydrobenzo[c][1,2]oxaborole)], the concentration for a half-maximal effect (EC50) came to 2.3 µg/mL (≈ 6.85 µM) in the series with Alternaria alternata, 12.2 µg/mL (≈ 36.3 µM) in the series with Penicillium expansum and 9.1 µg/mL (≈ 27.1 µM) with Glomerella cingulata. Also, the figures for the minimum inhibitory concentration (MIC) against Alternaria alternata, in the series with Penicillium expansum and in the series with Glomerella cingulata were 8.9 µg/mL (≈ 26.5 µM), 71.4 µg/mL (≈ 212 µM) and 143 µg/mL (≈ 425 µM), respectively.

In the series on Alternaria alternata, `Fc1ccc2c(c1)COB2OCCOB1OCc2cc(F)ccc21` [Compound 7, 1,2-bis((5-fluorobenzo[c][1,2]oxaborol-1(3H)-yl)oxy)ethane] displayed an EC50 of 0.3 µg/mL (≈ 0.909 µM) and an MIC of 2.2 µg/mL (≈ 6.67 µM). The same compound gave a minimal inhibitory concentration (MIC) against Monilinia fructicola of 2.2 µg/mL (≈ 6.67 µM). Further, in the series on Penicillium expansum, the EC50 is less than 0.6 µg/mL and the minimal inhibitory concentration (MIC) was determined as 8.9 µg/mL (≈ 27 µM). In series [1], this compound yielded a minimal inhibitory concentration (MIC) of 0.6 µg/mL (≈ 1.82 µM) and an EC50 of 0.2 µg/mL (≈ 0.606 µM). For the same compound, in series [1] (in vitro analysis, b318 says Botrytis cinerea and/or other pathogens), the “antimicrobial activity against Botrytis cinerea (in words)” value is recorded as “excellent activity”. Further, in series [2], the “phytotoxicity in strawberry in vivo analysis” value is recorded as “no phytotoxicity” and the “antimicrobial activity against Botrytis cinerea in strawberry in vivo analysis” value is “good antimicrobial activity”. Also, the “antimicrobial activity against Escherichia coli (colony growth relative to control)” value in series [3] is listed as “good antimicrobial activity”. Also, in series [4], the “antimicrobial activity against Botrytis cinerea in grape in vivo analysis” value is recorded as “good antimicrobial activity” and the “phytotoxicity in grape in vivo analysis” value is given as “no phytotoxicity”.

As to `CC(COB1OCc2cc(F)ccc21)OB1OCc2cc(F)ccc21` (centres unmarked) [Compound 11, 1,1′-(propane-1,2-diylbis(oxy))bis(5-fluoro-1,3-dihydrobenzo[c][1,2]oxaborole)], the EC50 in the series with Alternaria alternata was 0.31 µg/mL (≈ 0.901 µM); with Monilinia fructicola, 0.2 µg/mL (≈ 0.582 µM); with Penicillium expansum, less than 0.6 µg/mL; in series [1] it was 0.2 µg/mL (≈ 0.582 µM). In addition, the figures for the MIC (against Alternaria alternata; in the series with Penicillium expansum; in series [1]) were 1.1 µg/mL (≈ 3.2 µM), 8.9 µg/mL (≈ 25.9 µM) and 0.6 µg/mL (≈ 1.74 µM), respectively.

For orientation: EC50 means the concentration needed to bring the measured effect to its halfway point. As usually defined, the MIC is the smallest concentration in the dilution series that meets the test's criterion for growth inhibition. A higher MIC goes with a need for much substance.

Source of the values: US20210238201A1, “ANTIMICROBIAL COMPOUNDS AND COMPOSITIONS” (AGROFRESH INC., priority 2020, published 2021).
